Data: US9664690B1, “Molecular diagnostic kits for evaluating stress” (The National Institute for Biotechnology in the Negev Ltd., priority 2013, dated 2017)

Tested on: PBMCs
Experiment: GR antagonist block of MP immunosuppressive effects in anti-CD3 stimulated PBMCs (IFNg ELISA)
Format: cell-based, human
Conditions: plate-bound anti-CD3 48 hours, MP plus mifepristone
Protocol: Peripheral blood lymphocytes were stimulated in 96-well culture plate (2×10^5 cells/well) with plate bound anti-CD3 mAb (0.5 μg/ml), and cultured for 48 h at 37° C. The cultured supernatants were removed and stored at […]. Cytokine concentration in the supernatants were measured by ELISA using human cytokine kits.
Another approach to investigate the functionality of GR is by the examination of the responsiveness of immune cell subsets to the glucocorticoid antagonist, mifepristone. […] This indicates an impairment in GR signaling which contributes to steroid resistance, which could be tested in stressed and non-stressed individuals as described herein. Such an impairment could also optionally act as a biomarker for the stress diagnostic kit according to at least some embodiments thereof.
PBMCs were purified from young healthy-aged and AD subjects, stimulated by plate-bound anti-CD3 mAb (0.5 micro-g/ml) for 48 hours in the presence of MP or with both MP and GR antagonist, mifepristone. The cultured supernatants were examined for IFNg production by ELISA; the results are shown as percentage of the levels measured without MP.

Structure (SMILES): CC#C[C@]1(O)CC[C@H]2[C@@H]3CCC4=CC(=O)CCC4=C3[C@@H](c3ccc(N(C)C)cc3)C[C@@]21C [mifepristone]
- blocking of MP immunosuppressive effects (IFNg production) (PBMCs of aged and Alzheimer's disease (AD) subjects): impaired
- blocking of MP immunosuppressive effects (IFNg production) (PBMCs of young subjects): partially blocks
